Reference: publication PMC7101356, “Cross-site and cross-platform variability of automated patch clamp assessments of drug effects on human cardiac currents in recombinant cells” (Scientific Reports, 2020)

What was measured:
peak hNav1.5 = biological target: T1, peak hNav1.5 (Homo sapiens, UniProt Q14524); assay: Automated patch clamp, peak hNav1.5 current block; format: cell-based
T1 construct: expressed in transfected cells; host or cells: HEK293 or CHO, depending on site
Method: Peak current was measured during the depolarizing step to −15 mV. Leak current was measured after applying a saturating concentration of a blocker such as lidocaine (2 mM) at the end of each experiment to completely block hNav1.5 current.
(§1) Concentration-response relationships for each test article were independently investigated, i.e., each cell received only one test article, typically evaluating multiple concentrations in a cumulative fashion (lowest to highest concentrations). However, some platforms tested only one concentration per well. Each concentration response was based on a minimum of four concentrations, with a minimum of three wells used for each concentration. In cases of high variability, more cells per concentration were recorded. Prior to drug addition, cells received an addition of vehicle to measure non-test article-related effects such as addition artifacts. At the end of the experiment, a supramaximal concentration of a known inhibitory reference compound was applied to assess leak current and appropriate responsiveness of the test system.
(§2) The steady state current at each concentration was used to determine the concentration-response relationships. Mean concentration-response data were fitted to a standard sigmoidal four-parameter logistic equation (GraphPad Prism 7; GraphPad Inc., La Jolla, CA) of the form: Y=Bottom+(Top−Bottom)/(1+10^∧(LogIC50−X)∗HillSlope) where Y is the current inhibition (in % of pre-drug control), X is the logarithm of drug concentration, and IC50 is the drug concentration producing half-maximal current inhibition. Curve fitting was performed using the following constraints: Top = 100%, Bottom = 0%, Hill Slope <2. No curve fitting was performed in cases with an obvious lack of a concentration-dependent current inhibition and/or small effect size (approximately ≤20%).

late hNav1.5 = biological target: T2, late hNav1.5 (Homo sapiens, UniProt Q14524); assay: Automated patch clamp, late hNav1.5 current block (ATX-II activated); format: cell-based
T2 construct: expressed in transfected cells; host or cells: HEK293 or CHO, depending on site
T2 sequence (Q14524 whole entry): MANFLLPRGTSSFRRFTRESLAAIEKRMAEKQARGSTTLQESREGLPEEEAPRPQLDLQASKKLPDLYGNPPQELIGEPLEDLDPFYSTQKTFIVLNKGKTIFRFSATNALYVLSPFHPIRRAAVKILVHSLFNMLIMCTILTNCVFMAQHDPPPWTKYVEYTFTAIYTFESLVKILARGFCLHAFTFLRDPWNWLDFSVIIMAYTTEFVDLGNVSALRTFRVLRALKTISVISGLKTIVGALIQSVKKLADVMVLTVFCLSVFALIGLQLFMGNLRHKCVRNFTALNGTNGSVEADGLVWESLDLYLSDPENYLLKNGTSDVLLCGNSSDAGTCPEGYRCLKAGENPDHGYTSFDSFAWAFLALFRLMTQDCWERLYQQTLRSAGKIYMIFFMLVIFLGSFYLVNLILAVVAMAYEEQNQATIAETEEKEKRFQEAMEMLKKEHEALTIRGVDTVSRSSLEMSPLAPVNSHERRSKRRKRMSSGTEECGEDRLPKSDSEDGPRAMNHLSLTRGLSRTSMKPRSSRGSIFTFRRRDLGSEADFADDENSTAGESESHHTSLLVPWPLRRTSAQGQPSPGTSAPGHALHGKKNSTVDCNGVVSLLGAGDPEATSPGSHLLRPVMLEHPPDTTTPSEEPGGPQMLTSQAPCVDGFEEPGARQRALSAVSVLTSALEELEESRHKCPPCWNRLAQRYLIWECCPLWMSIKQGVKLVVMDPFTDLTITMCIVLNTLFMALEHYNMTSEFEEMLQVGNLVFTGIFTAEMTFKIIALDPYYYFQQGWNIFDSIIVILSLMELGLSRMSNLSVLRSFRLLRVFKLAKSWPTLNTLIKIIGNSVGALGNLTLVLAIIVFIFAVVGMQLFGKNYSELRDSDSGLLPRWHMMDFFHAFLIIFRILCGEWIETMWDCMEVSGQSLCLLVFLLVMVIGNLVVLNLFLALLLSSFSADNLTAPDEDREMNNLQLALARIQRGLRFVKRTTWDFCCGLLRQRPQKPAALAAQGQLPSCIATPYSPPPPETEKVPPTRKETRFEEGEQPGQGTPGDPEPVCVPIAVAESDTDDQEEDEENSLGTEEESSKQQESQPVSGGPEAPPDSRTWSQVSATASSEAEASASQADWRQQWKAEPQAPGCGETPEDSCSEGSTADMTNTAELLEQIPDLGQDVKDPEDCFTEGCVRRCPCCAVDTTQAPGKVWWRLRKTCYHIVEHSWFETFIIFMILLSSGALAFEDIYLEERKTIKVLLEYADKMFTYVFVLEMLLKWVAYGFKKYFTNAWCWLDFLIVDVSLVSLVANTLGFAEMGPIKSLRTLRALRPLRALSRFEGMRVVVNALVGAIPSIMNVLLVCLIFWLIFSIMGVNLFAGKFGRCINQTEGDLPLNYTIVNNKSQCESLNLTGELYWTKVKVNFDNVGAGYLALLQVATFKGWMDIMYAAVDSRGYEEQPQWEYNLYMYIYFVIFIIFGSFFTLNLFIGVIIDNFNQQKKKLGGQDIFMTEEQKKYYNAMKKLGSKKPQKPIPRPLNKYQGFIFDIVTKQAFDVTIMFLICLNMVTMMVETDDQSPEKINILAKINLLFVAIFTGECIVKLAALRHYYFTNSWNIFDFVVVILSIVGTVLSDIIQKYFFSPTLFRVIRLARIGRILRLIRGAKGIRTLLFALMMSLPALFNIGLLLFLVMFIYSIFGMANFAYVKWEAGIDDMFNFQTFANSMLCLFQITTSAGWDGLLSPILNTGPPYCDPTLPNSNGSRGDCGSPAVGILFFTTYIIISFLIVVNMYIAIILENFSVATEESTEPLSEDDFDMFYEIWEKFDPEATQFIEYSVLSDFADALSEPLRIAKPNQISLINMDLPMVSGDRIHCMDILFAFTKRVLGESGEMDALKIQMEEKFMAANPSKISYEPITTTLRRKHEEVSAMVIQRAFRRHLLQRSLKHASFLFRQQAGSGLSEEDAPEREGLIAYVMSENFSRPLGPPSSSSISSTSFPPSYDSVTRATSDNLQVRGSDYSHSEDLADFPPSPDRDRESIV
Method: However, all external solutions contained 30 nM ATX-II in order to activate late current. Late current was measured at its maximum during the repolarizing ramp.
as §1, §2

hERG [1] = biological target: T3, hERG (Homo sapiens, UniProt Q12809); assay: in vitro; details: hERG K+ current inhibition, Mean
T3 sequence (Q12809 whole entry): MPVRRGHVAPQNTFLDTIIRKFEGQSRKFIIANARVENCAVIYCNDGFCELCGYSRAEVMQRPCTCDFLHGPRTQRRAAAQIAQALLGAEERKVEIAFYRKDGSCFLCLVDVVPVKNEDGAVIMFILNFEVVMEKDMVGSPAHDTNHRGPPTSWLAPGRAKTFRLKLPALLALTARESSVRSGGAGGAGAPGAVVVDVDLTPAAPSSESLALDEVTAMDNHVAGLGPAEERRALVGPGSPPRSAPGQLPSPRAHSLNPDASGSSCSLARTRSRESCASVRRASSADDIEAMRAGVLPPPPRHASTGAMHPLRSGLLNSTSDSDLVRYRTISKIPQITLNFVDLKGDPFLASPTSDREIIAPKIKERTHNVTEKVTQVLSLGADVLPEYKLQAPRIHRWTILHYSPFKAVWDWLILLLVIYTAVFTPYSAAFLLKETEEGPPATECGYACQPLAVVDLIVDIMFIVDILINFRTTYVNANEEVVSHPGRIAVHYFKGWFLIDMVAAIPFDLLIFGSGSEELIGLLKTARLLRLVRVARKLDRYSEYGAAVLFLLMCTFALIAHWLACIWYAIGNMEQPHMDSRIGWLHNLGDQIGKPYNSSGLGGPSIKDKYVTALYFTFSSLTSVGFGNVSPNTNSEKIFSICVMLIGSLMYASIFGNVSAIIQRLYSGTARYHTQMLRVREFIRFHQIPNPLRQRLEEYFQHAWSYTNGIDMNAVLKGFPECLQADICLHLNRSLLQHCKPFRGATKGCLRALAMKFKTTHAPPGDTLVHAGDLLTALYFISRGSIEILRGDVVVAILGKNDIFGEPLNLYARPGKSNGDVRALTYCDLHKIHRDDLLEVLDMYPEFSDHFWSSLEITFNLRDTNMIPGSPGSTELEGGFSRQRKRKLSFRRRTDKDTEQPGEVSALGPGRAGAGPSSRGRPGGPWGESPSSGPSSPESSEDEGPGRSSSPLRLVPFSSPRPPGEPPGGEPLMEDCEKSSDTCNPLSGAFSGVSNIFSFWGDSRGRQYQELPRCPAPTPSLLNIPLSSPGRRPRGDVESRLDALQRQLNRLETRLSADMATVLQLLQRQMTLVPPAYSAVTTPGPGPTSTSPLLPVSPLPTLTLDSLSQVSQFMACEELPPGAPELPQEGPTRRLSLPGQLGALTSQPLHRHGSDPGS

[2] = based on CiPA evaluations; cited from earlier work
hCav1.2 = hCav1.2 (Homo sapiens, UniProt Q13936); assay: Automated patch clamp, hCav1.2 current block
hERG [3] = biological target: T3, hERG; design: expressed in transfected cells; host or cells: HEK293 or CHO, depending on site (site s06, Milnes protocol: HEK293); details: physiologic temperatures; cited from earlier work
[4] = site_platform s06_p4, 1.00E-09 mol/L
[5] = site_platform s06_p4, 3.00E-07 mol/L
[6] = site_platform s07_p6, 1.00E-09 mol/L
[7] = site_platform s07_p6, 3.00E-07 mol/L
[8] = site_platform s13_p2, 1.00E-09 mol/L
[9] = site_platform s14_p1, 3.00E-07 mol/L

COc1cc(N)c(Cl)cc1C(=O)NC1CCN(CCCOc2ccc(F)cc2)CC1OC (stereo not drawn) [cis, cisapride]
peak hNav1.5 Na+ current inhibition (result in words) (peak hNav1.5; no inhibition = no obvious concentration-dependent current block and/or no curve fitting performed, all sites): no inhibition
log IC50, peak hNav1.5 Na+ current inhibition (peak hNav1.5; site_platform s01_p1): no inh.
Peak hNav1.5 Na+ current inhibition, Mean (peak hNav1.5; site_platform s01_p1, 1.00E-09 mol/L): 55.1%
Peak hNav1.5 Na+ current inhibition, Mean (peak hNav1.5; site_platform s01_p1, 3.00E-07 mol/L): 41.7%
log IC50, peak hNav1.5 Na+ current inhibition (peak hNav1.5; site_platform s02_p2): no inh.
Peak hNav1.5 Na+ current inhibition, Mean (peak hNav1.5; site_platform s02_p2, 1.00E-09 mol/L): 0.1%
Peak hNav1.5 Na+ current inhibition, Mean (peak hNav1.5; site_platform s02_p2, 3.00E-07 mol/L): 4.3%
log IC50, peak hNav1.5 Na+ current inhibition (peak hNav1.5; site_platform s04_p3): no inh.
Peak hNav1.5 Na+ current inhibition, Mean (peak hNav1.5; site_platform s04_p3, 1.00E-09 mol/L): 1.4%
Peak hNav1.5 Na+ current inhibition, Mean (peak hNav1.5; site_platform s04_p3, 3.00E-07 mol/L): 9.8%
log IC50, peak hNav1.5 Na+ current inhibition (peak hNav1.5; site_platform s06_p4): no inh.
Peak hNav1.5 Na+ current inhibition, Mean (peak hNav1.5; [4]): -1.5%
Peak hNav1.5 Na+ current inhibition, Mean (peak hNav1.5; [5]): 6.3%
log IC50, peak hNav1.5 Na+ current inhibition (peak hNav1.5; site_platform s07_p6): no inh.
Peak hNav1.5 Na+ current inhibition, Mean (peak hNav1.5; [6]): 3.2%
Peak hNav1.5 Na+ current inhibition, Mean (peak hNav1.5; [7]): 12.5%
log IC50, peak hNav1.5 inhibition (peak hNav1.5; site_platform s10_p3): no inh.
Peak hNav1.5 Na+ current inhibition, Mean (peak hNav1.5; site_platform s10_p3, 1.00E-09 mol/L): -1.1%
Peak hNav1.5 Na+ current inhibition, Mean (peak hNav1.5; site_platform s10_p3, 3.00E-07 mol/L): 11.3%
log IC50, peak hNav1.5 inhibition (peak hNav1.5; site_platform s11_p1): no inh.
Peak hNav1.5 Na+ current inhibition, Mean (peak hNav1.5; site_platform s11_p1, 1.00E-09 mol/L): 8.6%
Peak hNav1.5 Na+ current inhibition, Mean (peak hNav1.5; site_platform s11_p1, 3.00E-07 mol/L): 10.0%
log IC50, peak hNav1.5 inhibition (peak hNav1.5; site_platform s12_p2): no inh.
Peak hNav1.5 Na+ current inhibition, Mean (peak hNav1.5; site_platform s12_p2, 1.00E-09 mol/L): -0.2%
Peak hNav1.5 Na+ current inhibition, Mean (peak hNav1.5; site_platform s12_p2, 3.00E-07 mol/L): 6.8%
log IC50, peak hNav1.5 inhibition (peak hNav1.5; site_platform s13_p2): no inh.
Peak hNav1.5 Na+ current inhibition, Mean (peak hNav1.5; [8]): -1.8%
log IC50, peak hNav1.5 inhibition (peak hNav1.5; site_platform s14_p1): no inh.
Peak hNav1.5 Na+ current inhibition, Mean (peak hNav1.5; [9]): -0.4%
log IC50, peak hNav1.5 inhibition (peak hNav1.5; site_platform s15_p1): no inh.
Peak hNav1.5 Na+ current inhibition, Mean (peak hNav1.5; site_platform s15_p1, 1.00E-09 mol/L): 10.3%
Peak hNav1.5 Na+ current inhibition, Mean (peak hNav1.5; site_platform s15_p1, 3.00E-07 mol/L): 21.4%
log IC50, peak hNav1.5 inhibition (peak hNav1.5; site_platform s16_p3): no inh.
Peak hNav1.5 Na+ current inhibition, Mean (peak hNav1.5; site_platform s16_p3, 1.00E-09 mol/L): 3.1%
Peak hNav1.5 Na+ current inhibition, Mean (peak hNav1.5; site_platform s16_p3, 3.00E-07 mol/L): 13.4%
log IC50, peak hNav1.5 inhibition (peak hNav1.5; site_platform s17_p1): no inh.
Peak hNav1.5 Na+ current inhibition, Mean (peak hNav1.5; site_platform s17_p1, 3.00E-07 mol/L): 1.3%
log IC50, peak hNav1.5 inhibition (peak hNav1.5; site_platform s18_p1): no inh.
Peak hNav1.5 Na+ current inhibition, Mean (peak hNav1.5; site_platform s18_p1, 1.00E-09 mol/L): -22.5%
Peak hNav1.5 Na+ current inhibition, Mean (peak hNav1.5; site_platform s18_p1, 3.00E-07 mol/L): 1.0%
log IC50, peak hNav1.5 inhibition (peak hNav1.5; site_platform s19_p3): no inh.
Peak hNav1.5 Na+ current inhibition, Mean (peak hNav1.5; site_platform s19_p3, 1.00E-09 mol/L): 6.7%
Peak hNav1.5 Na+ current inhibition, Mean (peak hNav1.5; site_platform s19_p3, 3.00E-07 mol/L): 20.0%
log IC50, late hNav1.5 inhibition (late hNav1.5; site_platform s06_p4): no inh.
Late hNav1.5 Na+ current inhibition, Mean (late hNav1.5; [4]): -0.7%
Late hNav1.5 Na+ current inhibition, Mean (late hNav1.5; [5]): 31.8%
log IC50, late hNav1.5 inhibition (late hNav1.5; site_platform s07_p6): no inh.
Late hNav1.5 Na+ current inhibition, Mean (late hNav1.5; [6]): 4.3%
Late hNav1.5 Na+ current inhibition, Mean (late hNav1.5; [7]): -17.0%
log IC50, late hNav1.5 inhibition (late hNav1.5; site_platform s13_p2): no inh.
Late hNav1.5 Na+ current inhibition, Mean (late hNav1.5; [8]): -16.7%
Late hNav1.5 Na+ current inhibition, Mean (late hNav1.5; site_platform s13_p2, 3.00E-07 mol/L): 7.2%
log IC50, late hNav1.5 inhibition (late hNav1.5; site_platform s14_p1): no inh.
Late hNav1.5 Na+ current inhibition, Mean (late hNav1.5; site_platform s14_p1, 1.00E-09 mol/L): -6.9%
Late hNav1.5 Na+ current inhibition, Mean (late hNav1.5; [9]): -6.3%
inhibition at 4 min, 1e-09 mol/L (hERG [1]): 7.2%
inhibition at 4 min, 3e-07 mol/L (hERG [1]): 68.5%
inhibition at 7 min, 1e-09 mol/L (hERG [1]): 12%
TdP Risk Category [2]: Intermediate
IC50 (hCav1.2; log IC50, half-maximal inhibitory concentration, site s16_p3): 447 nM
log IC50, half-maximal inhibitory concentration (hCav1.2; site s01_p1): no inh.
Peak hCav1.2 Ca2+ current inhibition, Mean (hCav1.2; site s01_p1, 1.00E-09 mol/L): 7.4%
Peak hCav1.2 Ca2+ current inhibition, Mean (hCav1.2; site s01_p1, 3.00E-07 mol/L): 8.1%
log IC50, half-maximal inhibitory concentration (hCav1.2; site s02_p2, corrected for rundown): no inh.
Peak hCav1.2 Ca2+ current inhibition, Mean (hCav1.2; site s02_p2, corrected for rundown, 1.00E-09 mol/L): -5.7%
Peak hCav1.2 Ca2+ current inhibition, Mean (hCav1.2; site s02_p2, corrected for rundown, 3.00E-07 mol/L): 14.5%
log IC50, half-maximal inhibitory concentration (hCav1.2; site s06_p4): no inh.
Peak hCav1.2 Ca2+ current inhibition, Mean (hCav1.2; site s06_p4, 1.00E-09 mol/L): -8.1%
Peak hCav1.2 Ca2+ current inhibition, Mean (hCav1.2; site s06_p4, 3.00E-07 mol/L): -6.0%
log IC50, half-maximal inhibitory concentration (hCav1.2; site s11_p1): no inh.
Peak hCav1.2 Ca2+ current inhibition, Mean (hCav1.2; site s11_p1, 1.00E-09 mol/L): 7.8%
Peak hCav1.2 Ca2+ current inhibition, Mean (hCav1.2; site s11_p1, 3.00E-07 mol/L): 10.4%
log IC50, half-maximal inhibitory concentration (hCav1.2; site s14_p1): no inh.
Peak hCav1.2 Ca2+ current inhibition, Mean (hCav1.2; site s14_p1, 1.00E-09 mol/L): -10.3%
Peak hCav1.2 Ca2+ current inhibition, Mean (hCav1.2; site s14_p1, 3.00E-07 mol/L): -19.9%
nH, Hill slope (hCav1.2; site s16_p3): 0.24
Peak hCav1.2 Ca2+ current inhibition, Mean (hCav1.2; site s16_p3, 1.00E-09 mol/L): 20.1%
Peak hCav1.2 Ca2+ current inhibition, Mean (hCav1.2; site s16_p3, 3.00E-07 mol/L): 49.1%
log IC50, half-maximal inhibitory concentration (hCav1.2; site s18_p1): no inh.
Peak hCav1.2 Ca2+ current inhibition, Mean (hCav1.2; site s18_p1, 1.00E-09 mol/L): 2.8%
Peak hCav1.2 Ca2+ current inhibition, Mean (hCav1.2; site s18_p1, 3.00E-07 mol/L): -16.5%

O=c1[nH]c2ccccc2n1C1CCN(CCCC(c2ccc(F)cc2)c2ccc(F)cc2)CC1 [pimozide]
difference of hERG IC50 between two manual patch clamp laboratories (hERG [3]): 44 fold
